In data set [1] the test system is Rattus norvegicus. Description: Potency index, Rattus norvegicus (rat)io of ibuprofen anti-inflammatory activity to compound anti-inflammatory activity in Wistar Rattus norvegicus (rat) at 70 mg/kg, po administered 1 hr prior to carrageenan-challenge measured after 4 hr by plethysmometer analysis. In kind it is functional.
Data set [2] relates to Rattus norvegicus. Description: Anti-inflammatory activity in Wistar Rattus norvegicus (rat) assessed as inhibition of carrageenan-induced paw edema at 70 mg/kg, po administered 1 hr prior to carrageenan-challenge measured after 4 hr by plethysmometer analysis. In kind it is functional. A general note: The carrageenan paw model is a standard test of acute inflammation.
Data set [3] has as its system Rattus norvegicus. Description: Anti-inflammatory activity in Wistar Rattus norvegicus (rat) assessed as inhibition of carrageenan-induced paw edema at 70 mg/kg, po administered 1 hr prior to carrageenan-challenge measured after 3 hr by plethysmometer analysis. In kind it is functional.
For data set [4], the system named is Rattus norvegicus. Description: Effect on lipid peroxidation in Wistar Rattus norvegicus (rat) gastric mucosa assessed as malondialdehyde content at 210 mg/kg, po measured per 100 mg of tissue by UV spectrophotometric analysis (reference value: 3.26 +/-0.01 nmol). In kind it is ADME, organism-based. On the set-up: dose 210 mg/kg, route oral. Conditions: in vivo.

In data set [5] the test system is Rattus norvegicus. Description: Gastrointestinal toxicity in Wistar Rattus norvegicus (rat) assessed as ulcerogenicity index at 210 mg/kg, po (reference value: 0 No unit). In kind it is organism-based. On the set-up: dose 210 mg/kg, route oral. Conditions: in vivo.
Data set [6] concerns Mus musculus. Description: Analgesic activity in Swiss albino Mus musculus (mouse) assessed as inhibition of pain at 70 mg/kg, po measured after 4 hr by tail immersion method. The format is functional.
Data set [7] deals with Mus musculus. Description: Potency index, ratio of ibuprofen analgesic activity to compound analgesic in Swiss albino Mus musculus (mouse) at 70 mg/kg, po measured after 4 hr by tail immersion method. The format is functional.
The subject of data set [8] is Mus musculus. Description: Analgesic activity in Swiss albino Mus musculus (mouse) assessed as time required for tail withdrawal at 70 mg/kg, po measured after 4 hr by tail immersion method. In kind it is functional.
Data set [9] deals with Rattus norvegicus. Description: Hepatotoxicity in Wistar albino Rattus norvegicus (rat) assessed as serum total albumin level at 210 mg/kg, po qd for 15 days (reference value: 1.63 +/-0.02 g/dl). The format is toxicity, organism-based. The conditions noted are these: in vivo, 360 h. The arrangement: dose 210 mg/kg, route oral.
In data set [10] the test system is Rattus norvegicus. Description: Hepatotoxicity in Wistar albino Rattus norvegicus (rat) assessed as serum total protein level at 210 mg/kg, po qd for 15 days (reference value: 1.72 +/-0.02 g/dl). The format is toxicity, organism-based. On the set-up: dose 210 mg/kg, route oral. Conditions: in vivo, 360 h.
The test system of data set [11] is Rattus norvegicus. Description: Hepatotoxicity in Wistar albino Rattus norvegicus (rat) assessed as serum alkaline phosphatase activity at 210 mg/kg, po qd for 15 days. On the set-up: dose 210 mg/kg, route oral. Conditions: in vivo, 360 h. The format is toxicity, organism-based.
The test system of data set [12] is Rattus norvegicus. Description: Hepatotoxicity in Wistar albino Rattus norvegicus (rat) assessed as serum glutamate pyruvate transaminase activity at 210 mg/kg, po qd for 15 days (reference value: 32.46 +/-0.76 units/ml). In kind it is toxicity, organism-based. The arrangement: dose 210 mg/kg, route oral. The conditions noted are these: in vivo, 360 h.
Data set [13] has as its system Rattus norvegicus. Description: Hepatotoxicity in Wistar albino Rattus norvegicus (rat) assessed as serum glutamate oxaloacetate transaminase activity at 210 mg/kg, po qd for 15 days (reference value: 143.71 +/-1.10 units/ml). The conditions noted are these: in vivo, 360 h. The arrangement: dose 210 mg/kg, route oral. In kind it is toxicity, organism-based.
The test system of data set [14] is Rattus norvegicus. Description: Hepatotoxicity in Wistar albino Rattus norvegicus (rat) assessed as hepatocyte with clearing of cytoplasm and compression of sinusoidal spaces at 210 mg/kg, po qd for 15 days measured after 24 hr of last dosage of drug by hematoxylin-eosin staining based light microscopy. The format is toxicity, organism-based, Sinusoidal space. On the set-up: dose 210 mg/kg, route oral. The conditions noted are these: hepatocytes.

Data set [15] has as its system Rattus norvegicus. Description: Hepatotoxicity in Wistar albino Rattus norvegicus (rat) assessed as hepatocyte necrosis and degeneRattus norvegicus (rat)ion at 210 mg/kg, po qd for 15 days measured after 24 hr of last dosage of drug by hematoxylin-eosin staining based light microscopy. The arrangement: dose 210 mg/kg, route oral. In kind it is toxicity, organism-based. The conditions noted are these: hepatocytes.

For the compound `O=[N+]([O-])c1ccc(-c2nn3c(Nc4nc5ccc(Cl)cc5s4)nnc3s2)cc1`, the Ratio with Rattus norvegicus [1] came out at 0.8. Also, the inhibition in vivo (as a rule, the drop in the measured response relative to a control, in per cent) at 70 mg/kg worked out at 66.7% in the data set on Rattus norvegicus [2] and 53.3% in the data set on Rattus norvegicus [3].

Regarding `Clc1ccc2nc(Nc3nnc(-c4ccccc4)o3)sc2c1`, in the data set on Rattus norvegicus [4], the Activity stood at 4.47 nmol. Further, in the data set with Rattus norvegicus [5], the UI is recorded as 1.667. Also, the figures for the inhibition in vivo at 70 mg/kg in the data set with Mus musculus [6], in the data set on Rattus norvegicus [2] and in the data set with Rattus norvegicus [3] were 61.1%, 88.3% and 78.8%, respectively. Also, the Ratio in the data set on Mus musculus [7] is given as 0.74; with Rattus norvegicus [1], 1.06. Further, the Time in the data set with Mus musculus [8] amounted to 1.45 s.

`Clc1ccc2nc(Nc3nnc(-c4ccccc4Cl)o3)sc2c1`: the Ratio in the data set with Rattus norvegicus [1] is reported as 0.64. Also, the values for the inhibition in vivo at 70 mg/kg with Rattus norvegicus [2] and in the data set with Rattus norvegicus [3] were 53.2% and 53%, respectively.

As for `Clc1ccc(-c2nnc(Nc3nc4ccc(Cl)cc4s3)o2)c(Cl)c1`, the Activity in the data set with Rattus norvegicus [9] was 1.7 g/dL; in the data set on Rattus norvegicus [10], 1.75 g/dL; in the data set on Rattus norvegicus [11], “Non-toxic”; in the data set on Rattus norvegicus [12] it was 30.74 U/ml; with Rattus norvegicus [13] it was 138.42 U/ml; with Rattus norvegicus [4], 3.29 nmol. Also, the Activity entry with Rattus norvegicus [14] was “Toxic”; in the data set on Rattus norvegicus [15] it was “Non-toxic”. For the same compound, the UI in the data set with Rattus norvegicus [5] worked out at 0.917. Further, the inhibition in vivo at 70 mg/kg was determined as 79% in the data set with Mus musculus [6], 87.1% in the data set with Rattus norvegicus [2] and 80% with Rattus norvegicus [3]. The Ratio in the data set on Mus musculus [7] is on record as 0.96; in the data set on Rattus norvegicus [1], 1.05. In the data set on Mus musculus [8], the Time turned out to be 2.22 s.

`Cc1ccccc1-c1nnc(Nc2nc3ccc(Cl)cc3s2)o1`: in the data set on Rattus norvegicus [1], the Ratio came out at 0.45. The results for the inhibition in vivo at 70 mg/kg with Rattus norvegicus [2] and in the data set with Rattus norvegicus [3] were 37.7% and 23.9%, respectively.

As to `CC(=O)Oc1ccccc1-c1nnc(Nc2nc3ccc(Cl)cc3s2)o1`, the Ratio in the data set with Rattus norvegicus [1] is reported as 0.61. For the same compound, the inhibition in vivo at 70 mg/kg stood at 50.8% in the data set with Rattus norvegicus [2] and 31% with Rattus norvegicus [3].

In the case of `Clc1ccc2nc(Nc3nnc(Oc4ccccc4)o3)sc2c1`, in the data set with Rattus norvegicus [4], the Activity is given as 9.1 nmol. The UI in the data set with Rattus norvegicus [5] turned out to be 1.083. Besides, the inhibition in vivo at 70 mg/kg in the data set with Mus musculus [6] came to 52%; in the data set with Rattus norvegicus [2], 88.8%; with Rattus norvegicus [3], 74.2%. Moreover, the figures for the Ratio with Mus musculus [7] and with Rattus norvegicus [1] were 0.63 and 1.07, respectively. Moreover, in the data set with Mus musculus [8], the Time is recorded as 1.9 s.

As for `CC.O=[N+]([O-])c1ccc(-c2nnc(Nc3nc4ccc(Cl)cc4s3)o2)cc1`, the Ratio in the data set on Rattus norvegicus [1] is recorded as 0.39. The values for the inhibition in vivo at 70 mg/kg in the data set on Rattus norvegicus [2] and in the data set with Rattus norvegicus [3] were 32.5% and 19.2%, respectively.

Take `Sc1nnc(Nc2nc3ccc(Cl)cc3s2)o1`: the Activity with Rattus norvegicus [4] was 9.04 nmol. Besides, the UI with Rattus norvegicus [5] was determined as 2.166. Also, the inhibition in vivo at 70 mg/kg amounted to 72.3% in the data set on Mus musculus [6], 69.8% in the data set on Rattus norvegicus [2] and 61.7% with Rattus norvegicus [3]. In addition, the results for the Ratio in the data set on Mus musculus [7] and in the data set on Rattus norvegicus [1] were 0.88 and 0.84, respectively. In addition, the Time in the data set with Mus musculus [8] is 2.24 s.

In the case of `Clc1ccc2nc(Nc3nnc4sc(-c5ccccc5Cl)nn34)sc2c1`, the Ratio with Rattus norvegicus [1] was 0.61. The inhibition in vivo at 70 mg/kg with Rattus norvegicus [2] stood at 50.8%; in the data set with Rattus norvegicus [3], 41.7%.

In the case of `Clc1ccc(-c2nn3c(Nc4nc5ccc(Cl)cc5s4)nnc3s2)c(Cl)c1`, the Activity in the data set with Rattus norvegicus [4] came to 5.74 nmol. Besides, in the data set on Rattus norvegicus [5], the UI was 0.925. In addition, the inhibition in vivo at 70 mg/kg came out at 75.4% with Mus musculus [6], 89.6% in the data set on Rattus norvegicus [2] and 80% in the data set on Rattus norvegicus [3]. Further, the Ratio turned out to be 0.92 in the data set with Mus musculus [7] and 1.08 with Rattus norvegicus [1]. The Time with Mus musculus [8] worked out at 2.21 s.

Take `Cc1ccccc1-c1nn2c(Nc3nc4ccc(Cl)cc4s3)nnc2s1`: the Activity in the data set on Rattus norvegicus [4] is reported as 7.44 nmol. Also, the UI in the data set with Rattus norvegicus [5] is listed as 1.583. Moreover, the values for the inhibition in vivo at 70 mg/kg in the data set with Mus musculus [6], in the data set on Rattus norvegicus [2] and in the data set on Rattus norvegicus [3] were 76.9%, 88.8% and 77.5%, respectively. Moreover, the figures for the Ratio with Mus musculus [7] and with Rattus norvegicus [1] were 0.93 and 1.07, respectively. The Time in the data set with Mus musculus [8] was 2.83 s.

As to `CC(=O)Oc1ccccc1-c1nn2c(Nc3nc4ccc(Cl)cc4s3)nnc2s1`, the Ratio with Rattus norvegicus [1] was 0.24. In addition, the figures for the inhibition in vivo at 70 mg/kg with Rattus norvegicus [2] and with Rattus norvegicus [3] were 20.6% and 10%, respectively.

On to `Clc1ccc2nc(Nc3nnc4sc(Oc5ccccc5)nn34)sc2c1`, for which the Activity in the data set with Rattus norvegicus [9] is 1.74 g/dL; in the data set with Rattus norvegicus [10], 1.79 g/dL; with Rattus norvegicus [11], “Non-toxic”; with Rattus norvegicus [12], 28.33 U/ml; in the data set with Rattus norvegicus [13], 131.18 U/ml; in the data set on Rattus norvegicus [4] it was 3.04 nmol. Further, the figures for the Activity entry in the data set on Rattus norvegicus [14] and with Rattus norvegicus [15] were “Toxic” and “Non-toxic”, respectively. Moreover, the UI in the data set with Rattus norvegicus [5] was 0.666. Besides, the results for the inhibition in vivo at 70 mg/kg in the data set with Mus musculus [6], in the data set with Rattus norvegicus [2] and in the data set with Rattus norvegicus [3] were 75%, 89.7% and 78.3%, respectively. In addition, the Ratio in the data set on Mus musculus [7] stood at 0.91; with Rattus norvegicus [1] it was 1.08. Further, the Time in the data set with Mus musculus [8] stood at 2.17 s.

With `Clc1ccc2nc(Nc3nnc4sc(-c5ccccc5)nn34)sc2c1`, the Ratio in the data set with Rattus norvegicus [1] worked out at 0.7. Also, the figures for the inhibition in vivo at 70 mg/kg in the data set with Rattus norvegicus [2] and with Rattus norvegicus [3] were 57.9% and 48.3%, respectively.

Take `CC(C)Cc1ccc(C(C)C(=O)O)cc1` (stereo not given) [IBUPROFEN]: the Activity with Rattus norvegicus [9] was 1.71 g/dL; with Rattus norvegicus [10] it was 1.74 g/dL; with Rattus norvegicus [11], “Toxic”; in the data set with Rattus norvegicus [12], 34.26 U/ml; with Rattus norvegicus [13] it was 140.14 U/ml; in the data set on Rattus norvegicus [4], 7.51 nmol. In the data set with Rattus norvegicus [5], the UI turned out to be 2.315. Further, the inhibition in vivo at 70 mg/kg is 73.5% in the data set on Mus musculus [6], 82.7% with Rattus norvegicus [2] and 78.2% with Rattus norvegicus [3]. The Time in the data set on Mus musculus [8] is listed as 2.6 s.
